# Assay results reported in PubChem BioAssay (NCI).
#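 Five compound concentrations were applied to cells in 96-well plates for 48 hours; endpoints were derived by simple linear interpolation of the resulting dose-response curve. Abbreviation: GI50, concentration required for 50% inhibition of growth. TGI marks complete inhibition of growth.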
# Key:
# Assay in all cases: NCI-60 cell line screen, 48 h
# SN12C renal = system: SN12C renal
# SK-MEL-28 melanoma = system: SK-MEL-28 melanoma
# NCI/ADR-RES ovarian = system: NCI/ADR-RES ovarian
# DU-145 prostate = system: DU-145 prostate
# HS 578T breast = system: HS 578T breast
# M14 melanoma = system: M14 melanoma
# T-47D breast = system: T-47D breast
# HCT-15 colon = system: HCT-15 colon
# HCT-116 colon = system: HCT-116 colon
# BT-549 breast = system: BT-549 breast
Structure (SMILES),GI50 (SN12C renal),TGI (SN12C renal),GI50 (SK-MEL-28 melanoma),TGI (SK-MEL-28 melanoma),GI50 (NCI/ADR-RES ovarian),TGI (NCI/ADR-RES ovarian),GI50 (DU-145 prostate),TGI (DU-145 prostate),GI50 (HS 578T breast),TGI (HS 578T breast),GI50 (M14 melanoma),TGI (M14 melanoma),GI50 (T-47D breast),TGI (T-47D breast),GI50 (HCT-15 colon),TGI (HCT-15 colon),GI50 (HCT-116 colon),TGI (HCT-116 colon),GI50 (BT-549 breast),TGI (BT-549 breast)
COc1ccc(-c2c(C#N)cnc(N)c2-c2nc3cc(C)c(C)cc3[nH]2)cc1,25.4 µM,> 100 µM,17.2 µM,> 100 µM,6.84 µM,> 100 µM,6.92 µM,23.8 µM,5.87 µM,> 100 µM,6.61 µM,> 100 µM,15.4 µM,> 100 µM,5.81 µM,> 100 µM,4.63 µM,> 100 µM,30.6 µM,> 100 µM
COc1ccc2oc3c(ccc[n+]3C)c(=O)c2c1,–,> 100 µM,–,> 100 µM,–,> 100 µM,–,> 100 µM,–,> 100 µM,–,> 100 µM,–,> 100 µM,–,> 100 µM,–,> 100 µM,–,–
CC(=O)Nc1nc(C)c(-c2cc3c(c(S(C)(=O)=O)c2)C(=O)N([C@@H](C)C2CC2)C3)s1,28.5 µM,> 100 µM,28.1 µM,> 100 µM,53.6 µM,> 100 µM,29.5 µM,> 100 µM,18.4 µM,64.2 µM,28 µM,> 100 µM,10.7 µM,45 µM,28.2 µM,> 100 µM,28.3 µM,> 100 µM,29.1 µM,> 100 µM
CC1CC(c2ccc([N+](=O)[O-])cc2)=Nc2ccccc2S1=O (configuration not stated),–,> 100 µM,–,43.6 µM,–,–,–,–,–,–,–,35 µM,–,–,–,28.1 µM,–,4.72 µM,–,–
O=c1ccc2nc3ccc(O)cc3oc-2c1,–,> 100 µM,–,–,–,> 100 µM,–,57.5 µM,–,> 60 µM,–,19.5 µM,–,> 100 µM,–,> 100 µM,–,> 100 µM,–,44 µM
Cc1ccc(C(=O)C(C)N)cc1C (configuration not stated),–,> 100 µM,–,> 100 µM,–,–,–,–,–,–,–,> 100 µM,–,–,–,–,–,> 100 µM,–,–
CC(=O)O[C@@H]1CN(S(=O)(=O)c2ccc(C)cc2)C[C@@H]1C1CCCCC1,–,–,–,34.3 µM,–,53.3 µM,–,> 100 µM,–,23.7 µM,–,29.3 µM,–,> 100 µM,–,> 100 µM,–,–,–,–
NC(=O)N/N=C/c1ccccc1O,–,–,–,> 100 µM,–,> 100 µM,–,> 100 µM,–,> 100 µM,–,> 100 µM,–,> 100 µM,–,> 100 µM,–,> 100 µM,–,> 100 µM
COc1cc2c(cc1O)N=C[C@@H]1CCC(O)N1C2=O (mixture of isomers),–,19.1 µM,–,2.84 µM,–,3.42 µM,–,–,–,–,–,–,–,–,–,6.44 µM,–,34 µM,–,–
CC(CNc1nc(Nc2ccc(Cl)c(Cl)c2)nc(C(Cl)(Cl)Cl)n1)N(C)C (configuration not stated),–,–,1.83 µM,3.29 µM,–,–,1.99 µM,4.09 µM,–,–,–,–,1.91 µM,4.44 µM,1.68 µM,3.15 µM,–,–,–,–
COc1ccc(/C=C/C(=O)/C=C(/C=C/c2ccc(OC)c(OC)c2OC)OB(F)F)c(OC)c1OC,2.01 µM,> 100 µM,–,–,3.28 µM,> 100 µM,3.13 µM,> 100 µM,–,–,2.74 µM,> 100 µM,3.62 µM,> 100 µM,–,–,0.399 µM,3.33 µM,–,–
Nc1ccc2c(c1)S(=O)(=O)c1cc(N)ccc1-2,–,> 100 µM,–,–,–,> 100 µM,–,> 100 µM,–,> 100 µM,–,> 100 µM,–,> 100 µM,–,> 100 µM,–,> 100 µM,–,> 100 µM
CCc1ncc(C(C)(O)c2ccccc2)n1Cc1ccccc1 (configuration not stated),–,60.6 µM,–,> 100 µM,–,> 100 µM,–,> 100 µM,–,> 100 µM,–,13 µM,–,> 100 µM,–,> 100 µM,–,11 µM,–,> 100 µM
